Laboratory results taken from patent US9279107B2, “Simplified basic media for human pluripotent cell culture” (WISCONSIN ALUMNI RESEARCH FOUNDATION, priority 2010, dated 2016).

What was measured:
foreskin cells [1] = assay: Reprogramming of foreskin fibroblasts to iPS cells; type: cell-based, human
Method: Available reprogramming protocols include incubation of the cells in FBS in the first several days after viral transduction or electroporation, prior to switching the cells to UM100 (U.S. Pat. No. 7,439,064, incorporated herein as if set forth in its entirety) or CM. The simplified media described in previous Examples were tested for their ability to support reprogramming.
To determine if DF5S-based media can be used for viral-free iPS cell derivation, foreskin cells were reprogrammed using a viral-free episomal vector, as described in Yu et al., Science 324:797 (2009), incorporated herein by reference as if set forth in its entirety, at hypoxic conditions (O5C10).
Plasmid combinations #6 and #19 were used for the reprogramming. In order to enhance the plasmid entry into the nucleus, ENBA mRNA was electroporated along with plasmid DNA. Around one million cells were transferred onto two 6-well plates in DF5SFeC for 5 days. Medium was then switched to DF5SFe for another 18-25 days. Cells of some of the wells were passaged for a second time using a 1:6 ratio at different time points.

human fibroblasts = assay: Reprogramming efficiency of human fibroblasts in E8-based medium; type: cell-based; conditions: E8 versus MEF feeder cells or TeSR; butyrate 100 μM with or without TGF-β
H1 ES cells [2] = assay: Short term growth / proliferation after passaging; type: cell-based, human; conditions: for cell proliferation after passaging: factor added to DMEM/F12, NaHCO3, insulin and FGF, L-ascorbic acid 64 mg/L
Method: (§1) Five-hundred micro liter of various test media was loaded into each well of 12-well plates prior to the addition of cells. Adherent pluripotent cells were dissociated with TrypLE (Invitrogen) for 5 minutes or until fully detached from the culture plates. TrypLE was neutralized by adding an equal volume of media to the culture. The cells were counted, washed, and resuspended in fresh media at a concentration of 300,000 to 1,000,000 cells/ml. Approximately 100 μl of this cell solution was added into each well of the 12-well plates and the cells were incubated at 37° C. with 5% O2 and 10% CO2. Cells were again dissociated at various time points using 0.4 ml TrypLE, which was subsequently neutralized with equal volumes of 10% FBS in DMEM. The cells were counted by flow cytometry. 5000 count bright beads were added to each sample as internal control (approximately 200 beads were counted for each sample). All experiments were performed in triplicates.
TeSR medium contains six growth factors, in addition to those present in the basal medium, fibroblast growth factor (FGF), transforming growth factor beta (TGF-β), γ-aminobutyric acid (GABA), pipecolic acid, lithium chloride (LiCl), and insulin (Table 1). A basic nutrient medium (NM) was created containing all TeSR™ components with the exception of these six growth factors. About 2×10^5 H1 ES cells were dissociated and plated on Matrigel. The survival index was determined after 24 h. […] Thus, NM supplemented with FGF and Insulin supports human ES cell culture. Twelve different basal nutrient media supplemented as described above were able to support cell survival and growth (FIG. 1E).
NM contains 11 nutritional components, i.e., DMEM/F12, trace elements B, trace elements C, L-ascorbic acid, thiamine, selenium, L-glutamine, BSA, BME, sodium bicarbonate (NaHCO3), and transferrin (Table 1). […]
H1 cells grew faster in the DF5S medium compared to cells grown in TeSR™ (FIGS. 1C and 2A). […] To increase assay sensitivity only 5,000 cells were seeded in each well and analyzed for survival (24 h) and proliferation (124 h). […]

H1 cells [3] = assay: Extended passage of cells in simplified media; type: cell-based, human; conditions: DF5, or nutritional factor added individually to DF5
H1 ES cells [4] = assay: ES cell survival in mTeSR without insulin; type: cell-based, human; conditions: for cell survival: 30 ng/ml added at 0 hour; for cell survival, dosage response: low concentration (e.g., 3 ng/ml), 24 hours
Method: Pluripotent cell survival assays were carried out as described in Example 1. Media tested included mTeSR and mTeSR […]. IGF1R is known to be activated by insulin, IGF1 and IGF2 (Nguyen et al., Reproduction 134:41-49 (2007)). Accordingly, the inventors designed and carried out experiments to test how IGF1 or IGF2 could affect ES cell survival. Individualized H1 ES cells were plated in mTeSR™ with or without insulin (Sigma). IGF1 (30 ng/ml) and IGF2 (30 ng/ml) were added to media at 0 hour. […] Dosage response assays were conducted to determine useful concentrations of IGF1, IGF2, and Long-IGF-1 (Sigma) in pluripotent cell maintenance medium. Individualized H1 ES cells were plated in mTeSR without insulin, IGF1, IGF2 and Long-IGF1 were added at 0 hour, and cell survival was measured after 24 hours.

H1 ES cells [5] = assay: ES cell proliferation after insulin replacement; type: cell-based, human; conditions: insulin replaced after 24 hours with 30 ng/ml; feeder-free culture
Method: To determine whether IGF1 and IGF2 are sufficient to support ES cell proliferation in the absence of insulin, individualized H1 ES cells were plated onto Matrigel plates in TeSR (with insulin) for the first 24 hours. Then insulin was either removed or replaced with IGF1 (30 ng/ml) and IGF2 (30 ng/ml). Cell numbers were measured at specific time points, and the fold change in cell numbers was normalized to the cell counts at the time when insulin was first replaced.

H1 cells [6] = assay: Cloning efficiency of H1 cells; type: cell-based, human
Method: FIG. 2 A-F illustrate optimization of human ES cell and iPS cell culture conditions with DF5S. […] Cell survival was examined at 24 hours and 124 hours. […] DF5S trFe indicates DF5S media to which holotransferrin was added. FIG. 2E illustrates the cloning efficiency of H1 cells cultured in various media in the presence of HA100 (10 μM, 24 hours), blebbistatin (10 μM, 4 hours), or Y27632 (10 μM, 24 hours), compared to cloning efficiency in the absence of these factors (control). Asterisks indicate p<0.05. FIG. 2F illustrates cloning efficiency of H1 cells in conditioned medium (CM), CM with ROCK inhibitor (HA100), TeSR with ROCK inhibitor, and E8 with ROCK inhibitor in normoxic (dark gray bars) or hypoxic (light gray bars) conditions. Error bars indicate the standard error of the mean; asterisks indicate p<0.05.
To determine cloning efficiency at various oxygen and CO2 concentrations, 500 cells were seeded into each well. Even at low oxygen, cloning efficiency was too low (<2%) to determine effects of various conditions on cloning. HA100, a ROCK inhibitor known to increase cloning efficiency, was used to increase cloning efficiency for testing oxygen and CO2 concentrations. Conditioned medium (CM), known to be the best medium for cloning, was used as control.
The cells maintained a normal karyotype after more than 25 passages.

iPS cells = assay: Cloning efficiency of iPS cells; type: cell-based, human; conditions: about 500 cells per well, in the presence of HA100, DF5S-based media versus TeSR or CM
Method: To determine how DF5S affects cloning efficiency, two iPS cell lines were grown in DF5S and plated at cloning density (approximately 500 cells per 12-well plate well) in the presence of HA100. […] To identify such factor, individual TeSR™ components were added individually to DF5S and tested for effect on cloning efficiency.

foreskin cells [7] = assay: Foreskin cell growth in DF5SFe-based media; set-up: species or system human
Method: To determine growth factors that can help primary foreskin cell growth, individual growth factors contained in FBS were tested. The FGF family of growth factors has several members, one or more of which is commonly used for fibroblast culture. DF5SFe contains 100 ng/ml zebrafish recombinant FGF2. Each FGF family member was tested for its ability to support foreskin cell growth. Foreskin cells were aliquoted into the well of culture plates and incubated for 24 hours in DF5SFe minus FGF. Individual FGF types were added at 100 ng/ml for 96 h.

H1 ES cells [8] = assay: Pluripotent cell survival assay (24 h survival index after dissociation); type: cell-based, human; conditions: basic nutrient medium NM with or without additions, H1 ES cells on Matrigel
Method: as §1, with “triplicates. TeSR medium contains six growth factors, in addition to those present in the basal medium, fibroblast growth factor (FGF), transforming growth factor beta (TGF-β), γ-aminobutyric acid (GABA), pipecolic acid, lithium chloride (LiCl), and insulin (Table 1). A basic nutrient medium (NM) was created containing all TeSR™ components with the exception of these six growth factors. […] The survival index was determined after 24 h. […]” for “triplicates.”

[9] = in E8, HA100 10 μM 24 h, blebbistatin 10 μM 4 h, Y27632 10 μM 24 h, versus control

CCCC(=O)[O-].[Na+] [Butyrate, sodium butyrate]
number of colonies during reprogramming (foreskin cells [1]; foreskin fibroblasts): did not increase the number of colonies
ratio of true iPS cell to non-iPS cell colonies (foreskin cells [1]; foreskin fibroblasts): improved the ratio of true iPS cell to non-iPS cell colonies significantly
reprogramming efficiency (foreskin cells [1]; reagent added to reprogramming media): improved reprogramming efficiency
reprogramming efficiency (human fibroblasts): further enhanced reprogramming efficiency

O=C(O)[C@@H]1C[C@@H](O)CN1 [Hydroxyproline]
cell proliferation after passaging (H1 ES cells [2]): could partially substitute for L-ascorbic acid

[Se] [selenium]
cell growth / proliferation through multiple passages (H1 cells [3]): sufficient to support cell proliferation through multiple passages

IGF1: ligand of the IGF1R receptor
cell survival (H1 ES cells [4]): rescued cell survival in the absence of insulin
cell survival, dosage response (H1 ES cells [4]): can support hES cell survival in the absence of insulin
cell proliferation (H1 ES cells [5]): able to support cell proliferation

Cc1ccc2c(c1)C(=O)C1(O)CCN(c3ccccc3)C1=N2 (stereo not shown) [blebbistatin]
cloning efficiency (H1 cells [6]; [9]): increased cloning efficiency

O=C1O[C@H]([C@@H](O)CO)C(O)=C1O [L-ascorbic acid]
cell proliferation after passaging (H1 ES cells [2]): necessary for cell proliferation after passaging

C[C@@H](N)[C@H]1CC[C@H](C(=O)Nc2ccncc2)CC1 [Y27632]
cloning efficiency (H1 cells [6]; [9]): increased cloning efficiency

C[C@]12CCC(=O)C=C1CC[C@@H]1[C@@H]2[C@@H](O)C[C@@]2(C)[C@H]1CC[C@]2(O)C(=O)CO [Hydrocortisone, reference compound]
cloning efficiency (iPS cells): improved iPS cell cloning efficiency
foreskin cell growth (foreskin cells [7]; added to DF5SFe to replace FBS): improved cell growth significantly

FGF1: FGF family member growth factor
foreskin cell growth (foreskin cells [7]; individual FGF added at 100 ng/ml for 96 h to DF5SFe minus FGF): supported foreskin cell growth most effectively

holo-transferrin
cloning efficiency (iPS cells): cloning efficiency comparable to that using TeSR™
cloning efficiency (H1 cells [6]; H1 cells in DF5S medium, transferrin added): noticeable improvement of cloning efficiency
cloning efficiency (H1 cells [6]; [9]): further increased

O=S(=O)(c1cccc2cnccc12)N1CCNCC1 [HA100]
cloning efficiency (H1 cells [6]; [9]): increased cloning efficiency
cloning efficiency (H1 cells [6]; in conditioned medium (CM), at both O5C10 and O15C5, 500 cells per well): significantly improved cloning efficiency

insulin
cell growth (H1 ES cells [2]; added to NM, insulin 20 ug/ml, FGF2 100 ng/ml, 96 h, compared with TeSR): did not support cell growth
cell survival after dissociation (survival index) (H1 ES cells [8]): cell survival similar to that observed with TeSR™

IGF2: ligand of the IGF1R receptor
cell survival (H1 ES cells [4]): rescued cell survival in the absence of insulin
cell survival, dosage response (H1 ES cells [4]): can support hES cell survival in the absence of insulin
cell proliferation (H1 ES cells [5]): able to support cell proliferation
